Patent US20030216327A1, “Sapogenin-based treatment” (L'OREAL, priority 2002, published 2003)

Tested on: immortalized human sebocytes derived from the SZ95 line
Experiment: Lipid production by immortalized human sebocytes in culture (Nile Red fluorescence)
Format: cell-based
Conditions: treatment for two days; for VARIATION IN LIPIDS (compared to control): total lipids (neutral + non-neutral), Nile Red, 0.1% DMSO
Protocol: Hecogenin and diosgenin, provided by SIGMA, were tested on a model of immortalized human sebocytes in culture, derived from the SZ95 line described in C. C. Zouboulis, H. Seltmann, H. Neitzel & C. E. Orfanos, Establishment and Characterization of an Immortalized Human Sebaceous Gland Cell Line, J. Invest. Dermatol., 113, 1011-1020 (1999).
The test consisted in measuring the amount of lipids produced by the sebocytes of the line (at confluency), in the presence or absence of active agents, diluted in DMSO such that the final amount of DMSO in the culture medium is 0.1%. After treatment for two days, the adherent cells are treated with Nile Red (1 μg/ml). The lipid content is then quantified by measuring the fluorescence of the dye (two excitation/emission couples: 485-540 nm for the neutral lipids and 540-620 nm for the non-neutral lipids). The results are given for the total lipids (combination of the two measurements).
The experiment was carried out in triplicate (assay products and control) in a 96-well plate and repeated three times.

SMILES	VARIATION IN LIPIDS (compared to control) (0.1 μM)	activity on lipid content (lipogenesis) (0.1 μM, same test, total lipids)	increase in the lipid content of the sebum (10 μM, same test, total lipids) [%]
C[C@@H]1CC[C@@]2(OC1)O[C@H]1C[C@H]3[C@@H]4CC[C@@]5(C)C[C@@H](O)CC[C@]5(C)[C@H]4CC(=O)[C@]3(C)[C@H]1[C@@H]2C [Hecogenin]	+5%		
C[C@@H]1CC[C@@]2(OC1)O[C@H]1C[C@H]3[C@@H]4CC=C5C[C@@H](O)CC[C@]5(C)[C@H]4CC[C@]3(C)[C@H]1[C@@H]2C [Diosgenin]	+4%		
C[C@]12CC[C@H](O)CC1=CC[C@@H]1[C@@H]2CC[C@]2(C)C(=O)CC[C@@H]12 [DHEA]		inactive	13
